Data published in the supplement of paper PMC10307832.

Assays:
Assay in all cases: relative viability (nuclei count vs DMSO), 5 days (fraction); higher = more cells survive
[1] = system: NCI-H2405
Method in brief: (§1)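 Lung cancer cell lines were seeded in 1536-well plates and dosed by pin tool the next day, with either a single drug or a fixed anchor-drug dose combined with five library-drug doses (not always all listed) spaced in √10 steps. Five days later, one step fixed the cells and stained their nuclei (final 0.05% Triton X-100, 1% formaldehyde, 1 ug/ml Hoechst), and nuclei were counted on 4× images. Relative viability is the nuclei count in treated wells divided by the count in vehicle wells, and each value is the median of duplicate plates.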

[2] = system: NCI-H1650
Method in brief: as §1

[3] = system: NCI-H520
Method in brief: as §1

[4] = system: H3255
Method in brief: as §1

[5] = system: NCI-H1651
Method in brief: as §1

[6] = system: RERF-LC-KJ
Method in brief: as §1

[7] = system: NCI-H1355
Method in brief: as §1

[8] = system: LK-2
Method in brief: as §1

[9] = system: PC-3 [JPC-3]
Method in brief: as §1

[10] = system: NCI-H661
Method in brief: as §1

[11] = system: NCI-H1734
Method in brief: as §1

[12] = system: PC-14
Method in brief: as §1

[13] = system: COR-L23
Method in brief: as §1

[14] = system: HCC-827
Method in brief: as §1

[15] = system: EKVX
Method in brief: as §1

[16] = system: NCI-H1437
Method in brief: as §1

[17] = system: SW 1573
Method in brief: as §1

[18] = system: NCI-H2228
Method in brief: as §1

[19] = system: SK-MES-1
Method in brief: as §1

[20] = system: HCC-15
Method in brief: as §1

[21] = system: NCI-H322M
Method in brief: as §1

[22] = system: NCI-H1563
Method in brief: as §1

[23] = system: CAL-12T
Method in brief: as §1

**Q.** Which results are given for `C[C@@H]1CN(CC(=O)Nc2ccc3c(c2)Cc2cccc(-c4cc(=O)cc(N5CCOCC5)o4)c2S3)C[C@H](C)O1` + Nc1nc2[nH]cc(CCc3ccc(C(=O)N[C@@H](CCC(=O)O)C(=O)O)cc3)c2c(=O)[nH]1 [Pemetrexed] (partner 0.2 µM)?
**A.** relative viability ([1]; first compound 0.04 µM): 1.11; relative viability ([1]; first compound 0.1265 µM): 1.01; relative viability ([1]; first compound 0.4 µM): 1.04; relative viability ([1]; first compound 4 µM): 1.03; relative viability ([2]; first compound 0.04 µM): 0.367; relative viability ([2]; first compound 0.1265 µM): 0.353; relative viability ([2]; first compound 0.4 µM): 0.408; relative viability ([2]; first compound 4 µM): 0.329; relative viability ([3]; first compound 0.04 µM): 0.844; relative viability ([3]; first compound 0.1265 µM): 0.666; relative viability ([3]; first compound 0.4 µM): 0.534; relative viability ([3]; first compound 4 µM): 0.492; relative viability ([4]; first compound 0.04 µM): 0.539; relative viability ([4]; first compound 0.1265 µM): 0.522; relative viability ([4]; first compound 0.4 µM): 0.482; relative viability ([4]; first compound 4 µM): 0.489; relative viability ([5]; first compound 0.04 µM): 0.549; relative viability ([5]; first compound 0.1265 µM): 0.565; relative viability ([5]; first compound 0.4 µM): 0.569; relative viability ([5]; first compound 4 µM): 0.52; relative viability ([6]; first compound 0.04 µM): 0.521; relative viability ([6]; first compound 0.1265 µM): 0.465; relative viability ([6]; first compound 0.4 µM): 0.461; relative viability ([6]; first compound 4 µM): 0.443; relative viability ([7]; first compound 0.04 µM): 0.941; relative viability ([7]; first compound 0.1265 µM): 1.04; relative viability ([7]; first compound 0.4 µM): 0.959; relative viability ([7]; first compound 4 µM): 0.997; relative viability ([8]; first compound 0.04 µM): 0.218; relative viability ([8]; first compound 0.1265 µM): 0.288; relative viability ([8]; first compound 0.4 µM): 0.237; relative viability ([8]; first compound 4 µM): 0.217; relative viability ([9]; first compound 0.04 µM): 1.04; relative viability ([9]; first compound 0.1265 µM): 1.09; relative viability ([9]; first compound 0.4 µM): 1.21; relative viability ([9]; first compound 4 µM): 0.943; relative viability ([10]; first compound 0.04 µM): 0.969; relative viability ([10]; first compound 0.1265 µM): 0.904; relative viability ([10]; first compound 0.4 µM): 0.899; relative viability ([10]; first compound 4 µM): 0.894; relative viability ([11]; first compound 0.04 µM): 0.424; relative viability ([11]; first compound 0.1265 µM): 0.405; relative viability ([11]; first compound 0.4 µM): 0.386; relative viability ([11]; first compound 4 µM): 0.398; relative viability ([12]; first compound 0.04 µM): 0.119; relative viability ([12]; first compound 0.1265 µM): 0.141; relative viability ([12]; first compound 0.4 µM): 0.127; relative viability ([12]; first compound 4 µM): 0.116; relative viability ([13]; first compound 0.04 µM): 0.189; relative viability ([13]; first compound 0.1265 µM): 0.204; relative viability ([13]; first compound 0.4 µM): 0.203; relative viability ([13]; first compound 4 µM): 0.206; relative viability ([14]; first compound 0.04 µM): 0.253; relative viability ([14]; first compound 0.1265 µM): 0.247; relative viability ([14]; first compound 0.4 µM): 0.247; relative viability ([14]; first compound 4 µM): 0.3; relative viability ([15]; first compound 0.04 µM): 0.376; relative viability ([15]; first compound 0.1265 µM): 0.42; relative viability ([15]; first compound 0.4 µM): 0.31; relative viability ([15]; first compound 4 µM): 0.369; relative viability ([16]; first compound 0.04 µM): 0.402; relative viability ([16]; first compound 0.1265 µM): 0.338; relative viability ([16]; first compound 0.4 µM): 0.336; relative viability ([16]; first compound 4 µM): 0.335; relative viability ([17]; first compound 0.04 µM): 0.935; relative viability ([17]; first compound 0.1265 µM): 0.855; relative viability ([17]; first compound 0.4 µM): 0.903; relative viability ([17]; first compound 4 µM): 0.822; relative viability ([18]; first compound 0.04 µM): 0.333; relative viability ([18]; first compound 0.1265 µM): 0.351; relative viability ([18]; first compound 0.4 µM): 0.34; relative viability ([18]; first compound 4 µM): 0.226; relative viability ([19]; first compound 0.04 µM): 1.01; relative viability ([19]; first compound 0.1265 µM): 0.9; relative viability ([19]; first compound 0.4 µM): 0.808; relative viability ([19]; first compound 4 µM): 0.808; relative viability ([20]; first compound 0.04 µM): 0.212; relative viability ([20]; first compound 0.1265 µM): 0.203; relative viability ([20]; first compound 0.4 µM): 0.224; relative viability ([20]; first compound 4 µM): 0.212; relative viability ([21]; first compound 0.04 µM): 0.597; relative viability ([21]; first compound 0.1265 µM): 0.607; relative viability ([21]; first compound 0.4 µM): 0.649; relative viability ([21]; first compound 4 µM): 0.657; relative viability ([22]; first compound 0.04 µM): 0.661; relative viability ([22]; first compound 0.1265 µM): 0.774; relative viability ([22]; first compound 0.4 µM): 0.715; relative viability ([22]; first compound 4 µM): 0.712; relative viability ([23]; first compound 0.04 µM): 1.27; relative viability ([23]; first compound 0.1265 µM): 1.21; relative viability ([23]; first compound 0.4 µM): 1.08; relative viability ([23]; first compound 4 µM): 0.428
